This note sets out measurements from patent US8415469B2, “Compounds and methods for kinase modulation, and indications therefor” (Plexxikon Inc., priority 2005, dated 2013).

Structures are written as SMILES. Some results are limits rather than exact numbers.

Common to all, as to assay type: biochemical
In one assay the target is T1, Zap70 (Homo sapiens, UniProt P43403).
T1 construct: P1868.pFastBac1 ZAP70 D327-G606 HIS, WT; His7 (HHHHHHH) (C); made in house
T1 sequence (P43403 with tags, fused parts or gaps): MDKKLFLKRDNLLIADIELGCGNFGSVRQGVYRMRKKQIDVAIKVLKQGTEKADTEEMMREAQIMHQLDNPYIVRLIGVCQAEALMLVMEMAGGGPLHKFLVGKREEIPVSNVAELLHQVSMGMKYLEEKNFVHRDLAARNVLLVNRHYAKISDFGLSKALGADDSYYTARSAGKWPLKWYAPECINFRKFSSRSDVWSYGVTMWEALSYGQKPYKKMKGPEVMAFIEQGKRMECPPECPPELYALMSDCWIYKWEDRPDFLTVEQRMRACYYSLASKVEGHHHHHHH
Put plainly: AlphaScreen kinase assay, Zap70. The note with it: read-out: IC50, activity toward kinase Zap70. An excerpt: AlphaScreen assay was used to screen additional kinases. The assay is similarly dependent on the phosphorylation of a peptide substrate. In this assay, an antibody that recognizes phosphorylated substrate is bound to an acceptor bead. The peptide substrate is attached to biotin, which binds to a donor head that contains streptavidin. Thus phosphorylated substrate is bound by antibody and streptavidin, bringing the donor and acceptor heads into close proximity when kinase is not inhibited. The donor produces singlet oxygen which results in emission from the acceptor when they are in close proximity. Conversely, when kinase is inhibited, the donor and acceptor beads are not associated and the emission from the acceptor is reduced.
AlphaScreen assays were done using compounds dissolved in DMSO to a concentration of 20 mM. The compounds were diluted accordingly to the desired final concentrations in each sample well, using 1:3 serial dilution for a total of 8 concentration points.
(In general: In Alpha technology, singlet oxygen from a donor bead excites a nearby acceptor bead.)

The target of the next assay is T2, B-Raf (Homo sapiens, UniProt P15056).
T2 construct: purchased Upstate Biotechnology
Put plainly: AlphaScreen kinase assay, B-Raf. The following applies: read-out: IC50, activity toward kinase B-Raf.

The target of the next assay is T3, B-Raf V600E (Homo sapiens, UniProt P15056, V600E).
T3 construct: P4254. pFastBacBD-CDC37 BRAF D437-K722-X, V600E; His6 with pFastBac HT leader (TEV site) (N); made in house; host or cells: Sf9 (baculovirus; chaperone CDC37 co-expressed)
Put plainly: AlphaScreen kinase assay, B-Raf V600E. The note with it: read-out: IC50, activity toward kinase B-Raf V600E.

The next assay addresses T4, c-Raf-1 (Homo sapiens, UniProt P04049).
T4 construct: purchased Upstate Biotechnology
Put plainly: AlphaScreen kinase assay, c-Raf-1. The following applies: read-out: IC50, activity toward kinase c-Raf-1.

In another assay the target is T5, Pyk2 (Homo sapiens, UniProt Q14289).
T5 construct: purchased Upstate Biotechnology
Put plainly: AlphaScreen kinase assay, Pyk2. The note with it: read-out: IC50, activity toward kinase Pyk2.

A further assay concerns the target T6, Stk6 (Homo sapiens, UniProt O14965).
T6 construct: purchased Invitrogen (Carlsbad, Calif.), screening service
T6 sequence (O14965 1-403): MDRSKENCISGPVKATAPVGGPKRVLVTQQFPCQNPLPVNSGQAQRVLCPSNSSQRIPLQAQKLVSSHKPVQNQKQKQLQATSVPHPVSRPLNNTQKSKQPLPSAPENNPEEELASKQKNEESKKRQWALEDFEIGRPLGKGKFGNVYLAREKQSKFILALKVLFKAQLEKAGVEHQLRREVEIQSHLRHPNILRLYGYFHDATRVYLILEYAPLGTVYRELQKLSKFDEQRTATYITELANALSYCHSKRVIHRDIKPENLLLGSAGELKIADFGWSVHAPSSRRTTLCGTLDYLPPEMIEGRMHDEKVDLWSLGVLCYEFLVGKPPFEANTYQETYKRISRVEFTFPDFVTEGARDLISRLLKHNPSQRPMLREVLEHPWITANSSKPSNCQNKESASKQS
As to the kind of experiment: Z'-Lyte FRET kinase assay (Invitrogen), Stk6. The note with it: read-out: IC50, activity toward kinase Stk6.

The target of the next assay is T7, Yes (Homo sapiens, UniProt P07947).
T7 construct: purchased Invitrogen (Carlsbad, Calif.), screening service
Put plainly: Z'-Lyte FRET kinase assay (Invitrogen), Yes. The following applies: read-out: IC50, activity toward kinase Yes. An excerpt:
The effect of potential modulators of kinase activity can be measured in a variety of different assays known in the art. For example, direct radiometric, indirect FRET or AlphaScreen assays may be used to assess the level of phosphorylation of a substrate in the presence of test compounds in order to determine the inhibitory affect of the compound on the kinase. Invitrogen (Carlsbad, Calif.) uses a FRET based assay for Btk, EGFR, EphB2, Flt3, lrak4, Kdr, MAP2K1, MAPKAPK2, PDGFRB, PKC theta, Stk6 and Yes. For these assays, compounds of the invention were screened by Invitrogen using Z′-Lyte™ kinase assay.
Briefly, the Invitrogen kinase assay involves use of a specific peptide substrate optimized for each kinase, containing a fluorophore at each end that make up the FRET pair. The peptide sensitivity to proteolytic cleavage depends on phosphorylation of the peptide. Non-phosphorylated peptide is cleaved by a protease while peptide phosphorylated by the kinase is not cleaved. Cleavage of the peptide disrupts the FRET between the donor (coumarin) and acceptor (fluorescein) fluorophores, resulting in an increase in the ratio of donor emission to acceptor emission. The emission ratio of coumarin to fluorescein is used to assess the reaction progress. The extent of phosphorylation is determined from the emission ratio, which is low when the kinase is active (phosphorylated peptide is not cleaved, FRET pair connected) or higher for inhibited kinase (non-phosphorylated peptide is cleaved, FRET pair separated). Thus, the assay involves a kinase reaction in the presence of varying concentrations of a given compound, a development reaction with site specific protease, and detection of the fluorescent emission ratio of coumarin and fluorscein. […] Reaction conditions for each kinase are determined to provide optimal reaction times, incubation temperature, kinase and ATP concentrations. Test samples are made up in 1× kinase buffer (50 mM HEPES pH 7.5, 50 mM MgCl2, 5 mM EGTA, 0.05% BRIJ-35) and compound at desired concentration prepared in DMSO such that the final DMSO is 1%. […] Typically, assay plates are prepared to 10 μl final volume per sample, adding 2.5 μl of compound at 4× the desired concentration in 4% DMSO (serial dilution of compound provides concentration curve), 5 μl of the desired kinase mixed with Z′-LYTE™ peptide substrate (2× in 2× kinase buffer, final peptide at 2 μM), and 2.5 μl of 4×ATP solution. All kinase except for MAP2K1 were at 10 μM ATP in the kinase reaction, while MAP2K1 was at 100 μM. Samples are mixed and the kinase reaction is incubated 1 hour at room temperature, after which 5 μl of development solution is added and mixed. After incubation for another 1 hour at room temperature, 5 μl of stop reagent is added to each sample and mixed. The fluorescence signals are measured to determine the emission ratio.

The target of a further assay is T8, FGFR1 (Homo sapiens, UniProt P11362, C488A/C584S).
T8 construct: P1351.pET N6 BI-PTP FGFR A458-E765-X C488A, C584S; made in house; host or cells: E. coli (PTP1B co-expressed)
Put plainly: AlphaScreen kinase assay, FGFR1. The following applies: read-out: IC50, activity toward kinase FGFR.

T7 sequence (P07947 whole entry): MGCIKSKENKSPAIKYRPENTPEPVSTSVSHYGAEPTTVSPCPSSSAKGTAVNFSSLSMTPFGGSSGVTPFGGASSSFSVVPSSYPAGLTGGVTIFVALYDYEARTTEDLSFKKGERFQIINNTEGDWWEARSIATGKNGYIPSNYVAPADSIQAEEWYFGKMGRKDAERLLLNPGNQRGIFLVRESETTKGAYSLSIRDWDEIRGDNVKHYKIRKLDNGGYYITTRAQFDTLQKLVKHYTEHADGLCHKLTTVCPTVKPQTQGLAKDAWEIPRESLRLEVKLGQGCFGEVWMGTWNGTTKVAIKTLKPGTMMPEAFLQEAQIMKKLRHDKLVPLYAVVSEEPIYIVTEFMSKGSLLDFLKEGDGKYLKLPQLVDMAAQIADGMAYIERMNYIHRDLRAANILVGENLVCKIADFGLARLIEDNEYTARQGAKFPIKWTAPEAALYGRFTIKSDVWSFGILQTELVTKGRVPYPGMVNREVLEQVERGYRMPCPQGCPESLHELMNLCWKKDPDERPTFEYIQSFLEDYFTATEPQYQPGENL
T3 sequence (P15056 with tags, fused parts or gaps V600E): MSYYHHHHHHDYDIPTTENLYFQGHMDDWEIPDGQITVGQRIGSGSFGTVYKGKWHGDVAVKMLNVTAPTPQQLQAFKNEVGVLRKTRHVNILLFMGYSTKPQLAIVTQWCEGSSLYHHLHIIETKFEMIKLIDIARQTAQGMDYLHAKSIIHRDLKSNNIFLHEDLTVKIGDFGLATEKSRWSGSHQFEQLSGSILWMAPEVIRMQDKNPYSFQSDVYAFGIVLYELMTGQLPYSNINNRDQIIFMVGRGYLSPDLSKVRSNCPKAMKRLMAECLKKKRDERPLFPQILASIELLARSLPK
T5 sequence (Q14289 whole entry): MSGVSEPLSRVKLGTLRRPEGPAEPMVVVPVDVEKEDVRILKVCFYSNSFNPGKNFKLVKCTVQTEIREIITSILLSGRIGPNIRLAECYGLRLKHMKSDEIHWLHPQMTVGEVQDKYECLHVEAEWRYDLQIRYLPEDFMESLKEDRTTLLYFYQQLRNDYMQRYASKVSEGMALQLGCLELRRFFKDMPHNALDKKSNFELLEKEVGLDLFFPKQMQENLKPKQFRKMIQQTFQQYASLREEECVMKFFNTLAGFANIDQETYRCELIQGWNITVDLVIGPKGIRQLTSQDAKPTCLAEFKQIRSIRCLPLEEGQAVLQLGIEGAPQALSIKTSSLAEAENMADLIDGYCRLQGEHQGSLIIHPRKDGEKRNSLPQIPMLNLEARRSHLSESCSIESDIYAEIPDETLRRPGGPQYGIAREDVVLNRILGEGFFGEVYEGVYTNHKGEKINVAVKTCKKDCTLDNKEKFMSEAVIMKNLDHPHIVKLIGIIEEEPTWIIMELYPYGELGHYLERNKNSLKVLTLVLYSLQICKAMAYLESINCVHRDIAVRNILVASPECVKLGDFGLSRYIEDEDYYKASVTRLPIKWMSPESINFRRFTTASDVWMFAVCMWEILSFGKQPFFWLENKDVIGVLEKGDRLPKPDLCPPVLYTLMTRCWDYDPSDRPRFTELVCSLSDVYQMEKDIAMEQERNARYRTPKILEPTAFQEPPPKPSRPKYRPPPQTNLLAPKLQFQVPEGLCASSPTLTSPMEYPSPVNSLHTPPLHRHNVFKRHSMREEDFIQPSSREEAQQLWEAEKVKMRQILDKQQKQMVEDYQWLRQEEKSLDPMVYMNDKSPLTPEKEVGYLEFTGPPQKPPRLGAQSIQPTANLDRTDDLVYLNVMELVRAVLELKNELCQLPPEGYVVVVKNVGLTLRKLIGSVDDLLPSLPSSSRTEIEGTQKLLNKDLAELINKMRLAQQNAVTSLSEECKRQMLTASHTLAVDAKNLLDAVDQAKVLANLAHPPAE
T4 sequence (P04049 whole entry): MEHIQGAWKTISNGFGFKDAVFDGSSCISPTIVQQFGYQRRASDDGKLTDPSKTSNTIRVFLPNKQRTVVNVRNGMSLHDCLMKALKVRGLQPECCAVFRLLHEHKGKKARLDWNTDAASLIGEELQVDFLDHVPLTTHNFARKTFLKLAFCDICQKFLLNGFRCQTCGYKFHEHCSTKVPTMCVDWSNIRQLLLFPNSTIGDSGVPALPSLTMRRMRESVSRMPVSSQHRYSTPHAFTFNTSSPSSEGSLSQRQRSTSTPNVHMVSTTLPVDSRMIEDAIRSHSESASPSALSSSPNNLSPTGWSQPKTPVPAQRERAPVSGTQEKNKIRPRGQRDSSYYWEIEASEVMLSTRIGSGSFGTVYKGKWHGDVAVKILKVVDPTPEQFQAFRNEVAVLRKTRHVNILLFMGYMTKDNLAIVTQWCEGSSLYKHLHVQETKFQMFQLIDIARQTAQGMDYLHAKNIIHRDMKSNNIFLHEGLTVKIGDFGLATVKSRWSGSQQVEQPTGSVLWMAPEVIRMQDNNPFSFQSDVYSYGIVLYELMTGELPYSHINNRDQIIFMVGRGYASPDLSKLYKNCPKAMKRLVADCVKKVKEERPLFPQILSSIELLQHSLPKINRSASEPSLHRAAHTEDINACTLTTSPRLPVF
T2 sequence (P15056 whole entry): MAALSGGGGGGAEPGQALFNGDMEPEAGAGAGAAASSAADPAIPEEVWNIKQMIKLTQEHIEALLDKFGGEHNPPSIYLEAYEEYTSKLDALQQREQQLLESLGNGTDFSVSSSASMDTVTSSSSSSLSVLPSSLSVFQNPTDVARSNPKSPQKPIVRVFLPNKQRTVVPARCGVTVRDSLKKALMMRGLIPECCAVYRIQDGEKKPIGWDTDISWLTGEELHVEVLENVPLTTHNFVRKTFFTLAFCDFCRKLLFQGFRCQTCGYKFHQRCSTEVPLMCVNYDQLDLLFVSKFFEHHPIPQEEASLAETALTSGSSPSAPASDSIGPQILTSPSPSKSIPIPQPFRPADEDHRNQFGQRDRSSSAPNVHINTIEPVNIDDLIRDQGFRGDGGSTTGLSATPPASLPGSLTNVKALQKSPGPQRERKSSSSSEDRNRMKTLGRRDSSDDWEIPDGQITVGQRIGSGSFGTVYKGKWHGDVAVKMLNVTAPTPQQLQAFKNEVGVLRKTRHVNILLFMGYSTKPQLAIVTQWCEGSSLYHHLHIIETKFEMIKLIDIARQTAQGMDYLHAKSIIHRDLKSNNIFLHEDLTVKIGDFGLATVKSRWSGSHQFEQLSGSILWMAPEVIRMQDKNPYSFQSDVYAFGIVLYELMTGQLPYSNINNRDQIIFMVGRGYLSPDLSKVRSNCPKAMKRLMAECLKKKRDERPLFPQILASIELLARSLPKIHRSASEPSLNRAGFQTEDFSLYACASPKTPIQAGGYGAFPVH
T8 sequence (P11362 458-765 C488A/C584S): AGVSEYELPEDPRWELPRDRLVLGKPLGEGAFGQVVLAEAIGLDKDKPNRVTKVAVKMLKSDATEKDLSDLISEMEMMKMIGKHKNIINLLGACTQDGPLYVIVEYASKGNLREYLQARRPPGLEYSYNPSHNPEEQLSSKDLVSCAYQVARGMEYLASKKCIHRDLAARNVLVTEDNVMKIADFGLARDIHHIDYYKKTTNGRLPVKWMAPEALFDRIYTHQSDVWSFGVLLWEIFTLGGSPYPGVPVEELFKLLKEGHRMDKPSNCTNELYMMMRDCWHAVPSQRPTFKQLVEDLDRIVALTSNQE
Source text for Stk6: For example, direct radiometric, indirect FRET or AlphaScreen assays may be used to assess the level of phosphorylation of a substrate in the presence of test compounds in order to determine the inhibitory affect of the compound on the kinase. […] For these assays, compounds of the invention were screened by Invitrogen using Z′-Lyte™ kinase assay.
Briefly, the Invitrogen kinase assay involves use of a specific peptide substrate optimized for each kinase, containing a fluorophore at each end that make up the FRET pair. The peptide sensitivity to proteolytic cleavage depends on phosphorylation of the peptide. Non-phosphorylated peptide is cleaved by a protease while peptide phosphorylated by the kinase is not cleaved. Cleavage of the peptide disrupts the FRET between the donor (coumarin) and acceptor (fluorescein) fluorophores, resulting in an increase in the ratio of donor emission to acceptor emission. The emission ratio of coumarin to fluorescein is used to assess the reaction progress. […] Thus, the assay involves a kinase reaction in the presence of varying concentrations of a given compound, a development reaction with site specific protease, and detection of the fluorescent emission ratio of coumarin and fluorscein. […] Reaction conditions for each kinase are determined to provide optimal reaction times, incubation temperature, kinase and ATP concentrations. Test samples are made up in 1× kinase buffer (50 mM HEPES pH 7.5, 50 mM MgCl2, 5 mM EGTA, 0.05% BRIJ-35) and compound at desired concentration prepared in DMSO such that the final DMSO is 1%. […] All kinase except for MAP2K1 were at 10 μM ATP in the kinase reaction, while MAP2K1 was at 100 μM. Samples are mixed and the kinase reaction is incubated 1 hour at room temperature, after which 5 μl of development solution is added and mixed. After incubation for another 1 hour at room temperature, 5 μl of stop reagent is added to each sample and mixed. The fluorescence signals are measured to determine the emission ratio.

With `O=Cc1ccc(-c2ccnc3[nH]ccc23)cc1` [Compound P-0996], the IC50 at Zap70 was not above 10 µM.

Consider `CCCS(=O)(=O)Nc1ccc(F)c(C(O)c2c[nH]c3ncc(Br)cc23)c1F` (centres unmarked) [Compound P-0188, Propane-1-sulfonic acid {3-[(5-bromo-1H-pyrrolo[2,3-b]pyridin-3-yl)-hydroxy-methyl]-2,4-difluoro-phenyl}-amide], for which the IC50 on B-Raf, at B-Raf V600E, on c-Raf-1, at Pyk2, on Stk6 and at Yes was not above 10 µM in each case.

As for `CS(=O)(=O)c1ccc(CNCc2[nH]c3ncccc3c2-c2cccc(CO)c2)cc1` [Compound P-0523], the IC50 on Zap70 is not above 10 µM. On the same count and under the same terms, as for `O=C1CCCN1CCCNCc1c[nH]c2ncccc12` [Compound P-1184], the figure is not above 10 µM.

On to `Cc1[nH]c2ncccc2c1-c1ccc(C(C)(C)C)cc1` [Compound P-0953], for which the IC50 at Zap70 is not above 10 µM. The same measure, in the same setting: in the case of `Clc1ccnc2[nH]ccc12` [Compound P-0342] it was not above 10 µM; in that of `O=S(=O)(NCc1c[nH]c2ncccc12)c1cccc(-c2cccc(CO)c2)c1` [Compound P-0484], not above 10 µM.

As for `O=C(CCc1c[nH]c2ncccc12)NCc1cccnc1` [Compound P-0456], the IC50 at Zap70 was not above 10 µM.

Regarding `COCc1c[nH]c2ncccc12` [Compound P-1197], the IC50 at Zap70 was not above 10 µM.

Turning to `CCOC(=O)C(Cc1c[nH]c2ncccc12)C(=O)OCC` [Compound P-0642], the half-inhibitory concentration (IC50) at Zap70 is not above 10 µM. Still for that read-out and setting: in the case of `c1cnc2[nH]c(CNCCc3ccncc3)cc2c1` [Compound P-0880] it was not above 10 µM; in that of `COc1ccc(OC)c(S(=O)(=O)NCc2c[nH]c3ncccc23)c1` [Compound P-0808], not above 10 µM. With `COc1cccc(-c2ccc(S(=O)(=O)NCc3c[nH]c4ncccc34)s2)c1` [Compound P-0676], at Zap70, the IC50 is not above 10 µM. The same measure, in the same setting: in the case of `Clc1ccc(/C=C\c2c[nH]c3ncccc23)cn1` [Compound P-0360] it was not above 10 µM; in that of `O=S(=O)(c1ccsc1)N1CCN(Cc2c[nH]c3ncccc23)CC1` [Compound P-1051], not above 10 µM.

As for `Cc1cc2cccnc2[nH]1` [Compound P-0394], the IC50 at Zap70 was not above 10 µM. Turning to `Cc1cc(C)cc(Cc2c[nH]c3ncccc23)c1` [Compound P-0507], the IC50 at FGFR1 and at Zap70 was not above 10 µM each time.

As for `FC(F)(F)c1ccc(-c2ccnc3[nH]ccc23)cc1` [Compound P-0694], the IC50 at Zap70 was not above 10 µM. On the same count and under the same terms, as for `COc1cc(CCNCc2cc3cccnc3[nH]2)ccc1O` [Compound P-0836], the figure is not above 10 µM; as for `O=C(NCc1ccccc1Cl)NCc1c[nH]c2ncccc12` [Compound P-0982], not above 10 µM.

For `CC(C)(C)NCc1c[nH]c2ncccc12` [Compound P-0476], the IC50 at Zap70 was not above 10 µM. Same read-out and setting: as for `O=S(=O)(NCc1c[nH]c2ncccc12)c1ccc(Cl)s1` [Compound P-0930], the figure is not above 10 µM; as for `CN(Cc1ccncc1)Cc1[nH]c2ncccc2c1-c1ccc(C(N)=O)cc1` [Compound P-0727], not above 10 µM; as for `COCCN1CCN(Cc2[nH]c3ncccc3c2-c2ccc(C(N)=O)cc2)CC1` [Compound P-0856], not above 10 µM. On the same count and under the same terms, in the case of `O=C(c1ccccc1)c1c[nH]c2c1cc(Br)c[n+]2[O-]` [Compound P-0275] it was not above 10 µM. Still for that read-out and setting: in the case of `COC(=O)c1ccc(CCc2c[nH]c3ncccc23)cc1` [Compound P-0586] it was not above 10 µM; in that of `COc1ccc(S(=O)(=O)NCc2ccnc3[nH]ccc23)cc1` [Compound P-0724], not above 10 µM; in that of `Brc1c(CNCc2cccnc2)[nH]c2ncccc12` [Compound P-0875], not above 10 µM. In the case of `Cc1cccc(-c2ccnc3[nH]cc(CNS(=O)(=O)c4ccc([N+](=O)[O-])cc4)c23)c1` [Compound P-0888], the IC50 at Zap70 is not above 10 µM. Same read-out and setting: as for `O=C(OCc1ccccc1)c1cnc2[nH]ccc2c1` [Compound P-0607], the figure is not above 10 µM. Same read-out and setting: as for `O=Cc1c[nH]c2nccc(Cl)c12` [Compound P-0649], the figure is not above 10 µM; as for `Fc1ccc(Cc2nc(-c3c[nH]c4ncccc34)no2)cc1` [Compound P-0602], not above 10 µM; as for `O=S(=O)(NCc1c[nH]c2ncccc12)c1ccc(O)cc1` [Compound P-0859], not above 10 µM. On the same count and under the same terms, as for `Cc1[nH]c2ncccc2c1-c1ccc(F)c(F)c1` [Compound P-0929], the figure is not above 10 µM; as for `c1cncc(-c2ccnc3[nH]ccc23)c1` [Compound P-0387], not above 10 µM; as for `COc1ccc(Cc2c[nH]c3ncccc23)cc1F` [Compound P-0359], not above 10 µM. Consider `N#Cc1ccc(/C=C\c2c[nH]c3ncccc23)cc1` [Compound P-0500], for which the IC50 at Zap70 is not above 10 µM. On the same count and under the same terms, in the case of `CCCOc1ccc(-c2c[nH]c3ncccc23)cc1` [Compound P-0878] it was not above 10 µM.

By IC50 is commonly meant the concentration at which inhibition is half-maximal.
